Read-outs that look alike come from different tables or passages of the source.
Columns and labels:
[1] = test system: mouse FM3A cells; experiment: Growth inhibition test of mouse FM3A cells; format: cell-based; conditions: for IC50: read-out: 50% growth inhibitory concentration IC50
Procedure: An F28-7 strain, a wild-type strain of mouse breast cancer-derived FM3A cells was used. Immobilized fetal bovine serum was added to an ES medium such that the serum made up 2% of the medium, and culture was conducted in CO2 at a concentration of 5%, and at 37° C. Doubling time of the F28-7 strain of FM3A cells under this condition was about 12 hours. Cells which had been precultured and entered to logarithmic growth phase were diluted to be 5×10^4 cells/ml in the medium. The same sample solution as in the above-mentioned Example 2-2 was used. 5 to 10 μl of the sample solution was added to each well of a 24-well plate (when medium and the like were added, the final concentration became 1×10^−4˜1×10^−5 M). The sample solution was duplicated or triplicated, and wells added with 10 μl of sterilized water, DMF or DMSO were prepared at the same time as controls. Next, a prepared suspension of cultured cells was added by 990 to 995 μl each, and uniformly suspended in media by pipetting gently. After cultured for 48 hours, the number of cells in each well was counted by a cell counter (CC-108; Toa. Medical Electrics), and growth rate was calculated by a formula mentioned below and 50% growth inhibitory rate (IC50) was calculated. The cell proliferation inhibiting activity was calculated according to the number of cells in wells supplemented with the sample solution and in controls. […] on this, cell toxicity of the sample was evaluated. [formula]
A: the number of cells at the beginning
B: the number of cells in a control after 2 days
C: the number of cells 2 days after supplementation of a sample

[2] = test system: P. falciparum; experiment: Growth inhibition test of P. falciparum; format: cell-based, Plasmodium falciparum; conditions: for Chemotherapeutic coefficient IC50/EC50: IC50 of mouse FM3A cells / EC50 of P. falciparum, index of selective toxicity; for EC50: Plasmodium falciparum
Procedure: P. Falciparum FCR-3 strain (ATCC30932) and P. Falciparum Honduras-i strain (ATCC30935), both of which are Plasmodium falciparum, were used as test malaria parasites for measuring antimalarial activity. A filter-sterilized RPMI1640 medium was adjusted to be pH 7.4 and added with human serum such that the serum made up 10% of the medium, and used as a test medium. The above-mentioned P. falciparum were cultured in O2at a concentration of 5%, CO2 at a concentration of 5% and N2 at a concentration of 90%, at a temperature of 36.5° C. Hematocrit value (ratio of volume of erythrocytes in erythrocyte suspension) used was adjusted to be 5%. Initial infection rate of P. falciparum at the beginning of culture was adjusted to be 0.1%. A 24-well plate was used for culture and a medium was replaced everyday, and cultures were transferred at infection rate of 4%. A thin-layer smear was constructed and subjected to Giemsa staining which had been originally developed for malarial test, or Diff-Qick staining, and followed by measurement under a microscope (oil immersion, 1000×), and then infection rate of P. falciparum was calculated according to a formula mentioned below. [formula]
Cultured erythrocytes infected with P. falciparum were gathered by centrifugation and washed with a medium containing serum, then noninfected erythrocytes were added, and a culture liquid for P. falciparum at initial infection rate of 0.3% was prepared. Hematocrit value in this case was adjusted to be 3%. The compound according to the present invention used for a test and represented by the formula (II) and […] of positive control drug (quinine, artemisinin, artesunate, mefloquine) were dissolved into sterilized water, N,N-dimethylformamide (DMF) or dimethylsulfoxide (DMSO), and a sample solution at prescribed concentration was prepared. 5 to 10 μl of the sample solution was added to each well of a 24-well plate. The sample solution was duplicated or triplicated. For control, sterilized water, DMF or DMSO was added by 10 μl per well. Next, the above-mentioned culture liquid for P. falciparum prepared to be at initial infection rate of 0.3% was added by 990 to 995 μl each, and uniformly suspended in media by pipetting gently. After cultured for 72 hours in a CO2—O2—N2 (5%, 5%, 90%) incubator, a thin-layer smear was constructed for each well of the culture plate, Giemsa staining or Diff-Qick staining was conducted, followed by measurement under a microscope (oil immersion, 1000×), and then infection rates of P. falciparum in a group supplemented with a test liquid and in controls were calculated. The growth inhibition rate was calculated according to a formula mentioned below based on the infection rate of P. falciparum as calculated above, and 50% growth inhibitory concentration (EC50) was calculated. [formula] […]
a: initial infection rate b: infection rate of a sample solution after 72 hours c: infection rate of a control after 72 hours
Antimalarial activity of a sample was evaluated based on EC50 and IC50 values of the sample of P. falciparum and mouse FM3A cells. Chemotherapeutic coefficient used as an index of selective toxicity against P falciparum was calculated by a formula mentioned below and drug efficacy was assessed. [formula]

[3] = F28-7 strain of mouse breast cancer-derived FM3A cells, cultured for 48 hours, cell count
[4] = Erythrocyte, P. falciparum in human erythrocytes, cultured for 72 hours, infection rate by smear staining, read-out: 50% growth inhibitory concentration EC50

C[C@@H]1CC[C@H]2[C@@H](C)C(=O)O[C@@H]3O[C@@]4(C)CC[C@@H]1[C@]32OO4 [Artemisinin, artemisinin]
IC50 [1, 3]: 10 µM | Chemotherapeutic coefficient IC50/EC50 [2]: 1,300 | EC50 [2, 4]: 0.0079 µM

COC(=O)C(C)C1CCC(=O)C2CCC3(C)OOC21C(O)O3 (stereo not drawn) [Compound of the present invention, 12-hidroxy-2-(1-methoxycarbonylethyl)-5-oxo-10,11,13-trioxatricyclo[7.2.0.0^1,6]tridecane]
IC50 [1, 3]: ≥ 24 µM | growth ([1]; mouse FM3A cells, printed below the IC50 cell 2.4 × 10^−5 M): (78% growth) | Chemotherapeutic coefficient IC50/EC50 [2]: >1,000 | selective toxicity against P. falciparum compared with that against mouse FA3A cells ([2]; P. falciparum versus mouse FA3A cells): more than 1,000 times | EC50 [2, 4]: 0.039 µM | EC50 ([2]; read-out: inhibits the growth of drug-resistant P. falciparum at a mol concentration of): 0.039 µM

OC(c1cc(C(F)(F)F)nc2c(C(F)(F)F)cccc12)C1CCCCN1 (stereo not drawn) [Mefloquine, mefloquine]
IC50 [1, 3]: 2.9 µM | Chemotherapeutic coefficient IC50/EC50 [2]: 90 | EC50 [2, 4]: 0.032 µM

C=C[C@H]1C[N@@]2CC[C@H]1C[C@H]2[C@H](O)c1ccnc2ccc(OC)cc12 [Quinine, quinine]
IC50 [1, 3]: 100 µM | Chemotherapeutic coefficient IC50/EC50 [2]: 910 | EC50 [2, 4]: 0.11 µM

C[C@H]1[C@H](OC(=O)CCC(=O)O)O[C@@H]2O[C@@]3(C)CC[C@H]4[C@H](C)CC[C@@H]1[C@@]24OO3 [Artesunate, artesunate]
IC50 ([1]; Mus musculus, FM3A, 48 h): 3 µM | Chemotherapeutic coefficient IC50/EC50 [2]: 180 | EC50 ([2]; Erythrocyte, 72 h, read-out: 50% growth inhibitory concentration EC50): 0.017 µM

Reference: patent US6710074B2, “Compound having antimalarial activity” (Japan Science and Technology Corporation, priority 2000, dated 2004)
